The source of these data is patent US5563149A, “Aqueous solutions of pyridone carboxylic acids” (Cheil Foods & Chemicals, Inc., priority 1994, dated 1996).

For data set [1] the following is noted: with asparagine, glutamic acid or gluconic acid; Korean Patent Application Publication No. 89-2040; cited from earlier work.
A short description of data set [2]: Solubility of compound A in water with added acid or amino acid, and pH of the saturated solution. The data set is classed as physicochemical. Conditions: for solubility at 4 h: water, per ml of water. The protocol: The organic acids suitable as solubilizing agents are chosen depending on the correlationship between the organic acid and the physical properties of the selected quinolone compound. Therefore, a varity of organic acids and amino acids were evaluated to determine whether certain acids are suitable as solubilizing agents capable of increasing the water solubility of compound A and the pH of the aqueous solution is suitable for injection and/or infusion solutions.
Exemplary active substance in practicing the present invention is compound A. The test method of the solubility is set forth as follows:
Compound A was mixed with an organic acid or an amino acid in the mole ratios between 0.5 and 6 before water was added with reflux. Then, the resulting solution was rigorously shaken with stirring for 5 minutes so that it was made homogeneous. After the homogenous solution was left to stand at elevated temperature for 4 hours, it was extracted through 0.45 micro of membrane filter. The amounts of active substances present in extracts were quantified by high pressure liquid chromatography.

A short description of data set [3]: bioavailability and half-life. The class given is in vivo. As to conditions: compared with quinolone drugs commercially available or in development.
Data set [4] deals with gram-negative and gram-positive bacteria. Briefly: in vitro antibacterial activity (gram-negative and gram-positive bacteria). The data set is classed as cell-based.
The nature of data set [5]: solubility in water (without solubilizing agent). As to conditions: no acid added. The class given is physicochemical.

Values after ≈ are worked out from the molar mass of the structure shown.

With `CCn1cc(C(=O)O)c(=O)c2cc(F)c(N3CCNCC3)nc21` [Enoxacin], the deposits in solutions entry in data set [1] is given as “do not lead to deposits”.

Usually solubility stands for the dissolved amount per volume that the medium holds. Read a high solubility as a readily soluble substance. With `C[C@]12C[C@@H](N)[C@H]1CN(c1nc3c(cc1F)c(=O)c(C(=O)O)cn3C1CC1)C2` (relative stereo) [compound A, 1-cyclopropyl-6-fluoro-l,4-dihydro-4-oxo-7-([1α, 5α,6β]6-amino-1-methyl-3-azabicyclo[3.2.0]heptan-3-yl)-1,8-naphtyridine-3-carboxylic acid], the “pH of saturated solution” value in data set [2] (compound A with Alanine) was 6.4; in data set [2] (compound A with Arginine), 10.0; in data set [2] (compound A with Asparagine) it was 6.2; in data set [2] (compound A with Aspartic acid), 5.3; in data set [2] (compound A with Cinnamic acid), 1.8; in data set [2] (compound A with Galacturonic (acid)), 3.3. Besides, the “pH of saturated solution” value in data set [2] (compound A with Gluconic acid) stood at 3.3; in data set [2] (compound A with Gluconic acid lactone) it was 3.6; in data set [2] (compound A with Glutamine), 6.4; in data set [2] (compound A with Glutaric acid), 3.8; in data set [2] (compound A with Histidine), 7.6; in data set [2] (compound A with Hydrochloric acid), 2.0. Besides, the “pH of saturated solution” value in data set [2] (compound A with Isoleucine) is listed as 6.4; in data set [2] (compound A with L-cysteine), 6.2; in data set [2] (compound A with L-valine) it was 6.4; in data set [2] (compound A with Malic acid), 3.4; in data set [2] (compound A with Methionine), 6.4; in data set [2] (compound A with Oxalic acid) it was 4.2. The “pH of saturated solution” value is on record as 4.0 in data set [2] (compound A with Succinic acid) and 6.3 in data set [2] (compound A with Threonine). Also, the solubility at 4 h in data set [2] (with Alanine) is 1300 µg/mL (≈ 3.49 mM); in data set [2] (with Arginine), 8200 µg/mL (≈ 22 mM); in data set [2] (with Asparagine), 2100 µg/mL (≈ 5.64 mM); in data set [2] (with Aspartic acid), 37600 µg/mL (≈ 101 mM); in data set [2] (with Cinnamic acid), 2100 µg/mL (≈ 5.64 mM); in data set [2] (with Galacturonic (acid)) it was 18300 µg/mL (≈ 49.1 mM). For the same compound, the solubility at 4 h in data set [2] (with Gluconic acid lactone) worked out at 28100 µg/mL (≈ 75.5 mM); in data set [2] (with Gluconic acid) it was 33400 µg/mL (≈ 89.7 mM); in data set [2] (with Glutamine), 1600 µg/mL (≈ 4.3 mM); in data set [2] (with Glutaric acid), 12100 µg/mL (≈ 32.5 mM); in data set [2] (with Histidine) it was 2100 µg/mL (≈ 5.64 mM); in data set [2] (with Hydrochloric acid), 44300 µg/mL (≈ 119 mM). Besides, the solubility at 4 h is 1400 µg/mL (≈ 3.76 mM) in data set [2] (with Isoleucine); 2300 µg/mL (≈ 6.18 mM) in data set [2] (with L-cysteine); 1300 µg/mL (≈ 3.49 mM) in data set [2] (with L-valine); 48700 µg/mL (≈ 131 mM) in data set [2] (with Malic acid); 1500 µg/mL (≈ 4.03 mM) in data set [2] (with Methionine); 3500 µg/mL (≈ 9.4 mM) in data set [2] (with Oxalic acid). For the same compound, the solubility at 4 h amounted to 47600 µg/mL (≈ 128 mM) in data set [2] (with Succinic acid) and 1500 µg/mL (≈ 4.03 mM) in data set [2] (with Threonine). In addition, the “solubility of compound A / pH of the resulting solution (in words)” value in data set [2] (with glutaric acid, cinnamic acid, galacturonic acid, glutamine, isoleusine, threonine, histidine, L-cysteine, alanine, arginine, L-valine, methionine or oxaline) is “did not substantilly improve the solubility of compound A or the pH of the resulting solution is unsuitable as injection and/or infusion solutions”. The bioavailability result in data set [3] was “better”. Moreover, the half-life result in data set [3] was “better”. Moreover, the “antibacterial activities compared with Lomefloxacin and Ofloxacin” value in data set [4] was “superior”. In addition, the solubility in water result in data set [5] is “not substantially soluble or little soluble in water”.
